We go through one compound from patent publication US10793525B2, “13-cis-RAMBA retinamides that degrade MNKs for treating cancer” (UNIVERSITY OF MARYLAND, BALTIMORE, priority 2014, dated 2020).

The test system of series [1] is CWR22Rv1 xenograft tumors. Kind of series: CWR22Rv1 anti-tumor efficacy study (xenograft). Format: in vivo, mice. Here is the method: (§1) All animal studies were performed according to the guidelines and approval of the Animal Care Committee of the University of Maryland School of Medicine, Baltimore (UMB). Female Athymic Nude mice or male SCID (Charles Rivers Laboratories or UMB facilities) at 4-6 weeks of age were maintained in a pathogen-free environment. MDA-MB-231 (10×10^6) cells were subcutaneously implanted into Athymic Nude mice and CWR22Rv1 (1×10^6) cells into male SCID mice. Mice bearing established tumors (˜100 mm^3) were randomized into treatment groups of 6 and dosed with vehicle (40% β-cyclodexdrin in ddH2O), or compounds 20 and 22 (i.p., formulated in 40% β-cyclodexdrin in ddH2O, once daily, 5 days a week for 28 days).
(§2) The National Cancer Institute (NCI) criteria^23 were used to determine tumor growth efficacy of our compounds. Thus, percent test or treatment/control (% T/C), defined as the ratio of the median tumor volume for the treated group versus control group, was calculated as % T/C=[(median tumor volume of treated group at day 28)/(median tumor volume of control group at day 28)]×100.

Series [2] deals with MDA-MB-231 xenograft tumors. Kind of series: MDA-MB-231 anti-tumor efficacy study (xenograft). Format: in vivo. The method, then: as §1, §2
Indeed, the two compounds were equipotent (FIG. 9A). […] Representative photos of the tumor-bearing mice in the control and the two treatment groups at termination of experiment (day 28) are presented in FIG. 9B.

In series [3] the test system is fAR, Mnk1/2, peIF4E, cyclin D1 and cleaved PARP. Kind of series: Western blot of lysates from LNCaP cells. In kind it is cell-based, human. Particulars: 0.6-20 μM, 24 hours. From the text:
(§3) MCF-7, MDA-MB-231, MDA-MB-468 and SKBR-3 human breast cancer cells and LNCaP, PC-3, and CWR22Rv1 human prostate carcinoma cells (American Type Culture Collection, Manassas, Va., USA) were maintained in RPMI 1640 media (Gibco-Life Technologies, Grand Island, N.Y., USA) supplemented with 10% fetal bovine serum and 1% penicillin/streptomycin. Western blotting was done as mentioned previously,^8, 13b using the following antibodies: AR, Bad, Bax, Bcl-2, eIF4E, Mnk1, Mnk-2, N-cadherin, PARP, peIF4E^ser209 purchased from Cell Signaling Technology, Danvers, Mass., USA. Anti-Mnk2 was purchased from Sigma-Aldrich and normal rabbit IgG, cyclin D1 was from Santa Cruz Biotechnology, CA, USA.
Equal protein concentrations from LNCaP cells treated with Compounds 16, 20 and 22 at different concentrations (0.6-20 μM) for 24 hours were separated by SDS-PAGE and western blots probed with antibodies to fAR, Mnk1/2, peIF4E, cyclin D1 and cleaved PARP. Vehicle treated cells were included as a control and all blots were reprobed for β-actin for loading control.

The test system of series [4] is PC-3 human prostate carcinoma cells. Kind of series: MTT cell proliferation assay, PC-3. Format: cell-based. To be noted: PC-3 cells, SEM < 10%, read-out: GI50s PC-3.
Excerpt: as §3
Cells were plated (2500 cells/well) in 96 well plates and treated with or without specified compounds as described previously.^8a, 12b
The clinically relevant retinoids, ATRA and 4-HPR and the Mnk inhibitor, cercosporamide were used as comparators in the assays.
The PC-3 cell line was the least sensitive to all the compounds tested.
For orientation: Tetrazolium dyes change colour on reduction, which living cells bring about.

Where [5] appears, read: CWR22Rv1 xenografts, castrated SCID mice, i.p. 20 mg/kg/day, 5 days per week for 28 days.
The mark [6] stands for this setting: MDA-MB-231 xenograft mice, i.p. 20 mg/kg 5×/week over 28 days.

Molecules are shown by their SMILES.

Regarding `CC1=C(/C=C/C(C)=C/C=C/C(C)=C\C(=O)Nc2cccc(F)c2)C(C)(C)CCC1n1ccnc1` (stereo not shown) [Compound 20, (2Z,4E,6E,8E)-9-(3-(1H-imidazol-1-yl)-2,6,6-trimethylcyclohex-1-en-1-yl)-N-(3-fluorophenyl)-3,7-dimethylnona-2,4,6,8-tetraenamide], in series [1] (CWR22Rv1 xenograft mice), the adverse effects entry is “no apparent adverse effects”. The body weights entry in series [1] (CWR22Rv1 xenograft mice, vehicle control versus treatment) is recorded as “comparable”. In series [1] (setting [5]), the “% T/C value” came out at 38.8% and the “suppression of tumor growth” value amounted to 61.2%. For the same compound, in series [2] (setting [6]), the body weight entry was “did not lose body weight” and the “signs of toxicity / adverse events” value was “no apparent adverse events”. In addition, the “suppression of tumor growth” value in series [2] (MDA-MB-231 xenografts, i.p. 20 mg/kg 5×/week over 28 days) amounted to 85.4%. Also, the “% T/C (treated/control median tumor volume)” value in series [2] (MDA-MB-231 xenografts, i.p. 20 mg/kg 5×/week, day 28) stood at 14.6%. For the same compound, in series [3], the “cleaved PARP (c-PARP)” value is “induced cleaved PARP”; the “cyclin D1” value is “significant depletion”; the “expression of total eIF4E” value was “no noticeable effects”; the “expressions of fAR, Mnk1 and Mnk2” value is “significantly and in a dose-dependent fashion, reduced”. The IC50 in series [4] worked out at 5.62 µM.
